The numbers were not newly measured in patent publication US8155888B2, “Method and apparatus for assessing polypeptide aggregation” (Cambridge University Technical Services Ltd., priority 2003, dated 2012), which cites them from elsewhere.

Where two headings read alike, the source gives them in different places. Where no end group is shown, it is not given here.

The conditions of data set [1]: mutant versus wild type; growth phase only; from literature data.
Experiment in data set [2]: not given
The source holds these as a separate data set.

Experiment in data set [3]: not given
The source holds these as a separate data set.

[4] abbreviates: Table 1, neutral pH, partition coefficients from water to octanol.
The mark [5] stands for this setting: Table 5, neutral pH, partition coefficients from water to octanol.
The mark [6] stands for this setting: Table 1, normalised from 0 (high) to 1 (low).
Setting [7] is: Table 5, normalized from 0 (high) to 1 (low).

For the compound “I26A: single-point mutation I26A of amylin (KCNTATCATQRLANFLVHSSNNFGAALSSTNVGSNTY; ends and bridges not checked; cysteine pairing not given here; UniProt P10997 34-70, looked up, variant I26A)”, the “observed ln(νmut/νwt)” value in data set [1] was −2.39.
On to `O=C(O)[C@@H]1CCCN1` [Pro (P), proline], for which the charge is given as 0 (Table 1, neutral pH) and 0 (Table 5, neutral pH). Moreover, the results for the hydrophobicity in data set [2] (setting [4]) and in data set [2] (setting [5]) were -0.237 kcal/mol and -0.99 kcal/mol, respectively.
For the compound `N[C@@H](Cc1c[nH]cn1)C(=O)O` [His (H), histidine], the β-sheet propensity in data set [3] (setting [6]) and in data set [3] (setting [7]) was 0.37 each time. Moreover, the charge (Table 1, neutral pH) is recorded as 0; the charge entry (Table 1, value in brackets, pH lower than 6.0) is on record as “+1”; the charge (Table 5, neutral pH) is given as 0; the charge entry (Table 5, value in brackets, pH lower than 6.0) was “+1”. Moreover, the hydrophobicity is 0.153 kcal/mol in data set [2] (setting [4]); 0.686 kcal/mol in data set [2] (Table 1, value in brackets, pH lower than 6.0, histidine positively charged); 0.64 kcal/mol in data set [2] (setting [5]); 2.87 kcal/mol in data set [2] (Table 5, value in brackets, pH lower than 6.0, histidine positively charged).
In the case of `C[C@@H](O)[C@H](N)C(=O)O` [Thr (T)], the β-sheet propensity in data set [3] (setting [6]) and in data set [3] (setting [7]) was 0.06 each time. Also, the charge is, setting by setting: (Table 1, neutral pH) 0; (Table 5, neutral pH) 0. Moreover, the hydrophobicity in data set [2] (setting [4]) was 0.239 kcal/mol; in data set [2] (setting [5]), 1.00 kcal/mol.
As for “D23N: D23N mutation of Aβ (amyloid-β peptide)”, the “observed ln(νmut/νwt)” value in data set [1] is reported as 3.97.
Consider `N[C@@H](Cc1ccccc1)C(=O)O` [Phe (F), phenylalanine], for which the β-sheet propensity in data set [3] (setting [6]) and in data set [3] (setting [7]) was 0.13 in each case. Further, the charge by setting is: (Table 1, neutral pH) 0; (Table 5, neutral pH) 0. Moreover, the hydrophobicity in data set [2] (setting [4]) is -0.543 kcal/mol; in data set [2] (setting [5]), -2.27 kcal/mol.
Turning to `NC(=O)CC[C@H](N)C(=O)O` [Gln (Q)], the β-sheet propensity in data set [3] (setting [6]) and in data set [3] (setting [7]) was 0.34 throughout. Also, the charge is, setting by setting: (Table 1, neutral pH) 0; (Table 5, neutral pH) 0. The hydrophobicity in data set [2] (setting [4]) is 0.311 kcal/mol; in data set [2] (setting [5]), 1.30 kcal/mol.
Turning to `N[C@@H](CCC(=O)O)C(=O)O` [Glu (E), glutamic acid], the β-sheet propensity in data set [3] (setting [6]) and in data set [3] (setting [7]) was 0.35 throughout. The charge is, setting by setting: (Table 1, neutral pH) −1; (Table 5, neutral pH) −1.
Regarding “F23A: single-point mutation F23A of amylin (KCNTATCATQRLANFLVHSSNNAGAILSSTNVGSNTY; ends and bridges not checked; cysteine pairing not given here; UniProt P10997 34-70, looked up, variant F23A)”, the “observed ln(νmut/νwt)” value in data set [1] is listed as −2.65.
As for `N[C@@H](CC(=O)O)C(=O)O` [Asp (D), aspartic acid], the β-sheet propensity in data set [3] (setting [6]) and in data set [3] (setting [7]) was 0.72 in each case. Moreover, the charge is −1 (Table 1, neutral pH) and −1 (Table 5, neutral pH). Besides, the hydrophobicity in data set [2] (setting [4]) was 0.911 kcal/mol; in data set [2] (setting [5]), 3.81 kcal/mol.
Take “N22A: single-point mutation N22A of amylin (KCNTATCATQRLANFLVHSSNAFGAILSSTNVGSNTY; ends and bridges not checked; cysteine pairing not given here; UniProt P10997 34-70, looked up, variant N22A)”: the “observed ln(νmut/νwt)” value in data set [1] is reported as 0.69.
As for “F19T: F19T mutation of Aβ (amyloid-β peptide)”, in data set [1], the “observed ln(νmut/νwt)” value is recorded as −2.48.
Regarding “E22K: E22K mutation of Aβ (amyloid-β peptide)”, the “observed ln(νmut/νwt)” value in data set [1] is 0.92.
`N[C@@H](CS)C(=O)O` [Cys (C)]: the β-sheet propensity in data set [3] (setting [6]) and in data set [3] (setting [7]) was 0.25 throughout. Moreover, the charge is on record as 0 (Table 1, neutral pH) and 0 (Table 5, neutral pH). Besides, the figures for the hydrophobicity in data set [2] (setting [4]) and in data set [2] (setting [5]) were -0.0598 kcal/mol and -0.25 kcal/mol, respectively.
Turning to `CC(C)[C@H](N)C(=O)O` [Val (V)], the β-sheet propensity in data set [3] (setting [6]) and in data set [3] (setting [7]) was 0.13 in each case. The charge (Table 1, neutral pH) is on record as 0 and the charge (Table 5, neutral pH) is recorded as 0. For the same compound, the hydrophobicity in data set [2] (setting [5]) is -1.30 kcal/mol.
In the case of `N[C@@H](Cc1ccc(O)cc1)C(=O)O` [Tyr (Y)], the β-sheet propensity in data set [3] (setting [6]) and in data set [3] (setting [7]) was 0.11 each time. The charge by setting is: (Table 1, neutral pH) 0; (Table 5, neutral pH) 0. Further, the hydrophobicity was -0.351 kcal/mol in data set [2] (setting [4]) and -1.47 kcal/mol in data set [2] (setting [5]).
Regarding `NCC(=O)O` [Gly (G), glycine], the β-sheet propensity in data set [3] (setting [6]) and in data set [3] (setting [7]) was 0.60 in each case. Also, the charge reads like this: (Table 1, neutral pH) 0; (Table 5, neutral pH) 0. Also, the hydrophobicity in data set [2] (setting [4]) was 0 kcal/mol; in data set [2] (setting [5]) it was 0.00 kcal/mol.
In the case of “L27A: single-point mutation L27A of amylin (KCNTATCATQRLANFLVHSSNNFGAIASSTNVGSNTY; ends and bridges not checked; cysteine pairing not given here; UniProt P10997 34-70, looked up, variant L27A)”, the “observed ln(νmut/νwt)” value in data set [1] is reported as −0.93.
As to `CC[C@H](C)[C@H](N)C(=O)O` [Ile (I)], the β-sheet propensity in data set [3] (setting [6]) and in data set [3] (setting [7]) was 0.10 in each case. Further, the charge is, setting by setting: (Table 1, neutral pH) 0; (Table 5, neutral pH) 0. Moreover, the hydrophobicity in data set [2] (setting [4]) was -0.435 kcal/mol; in data set [2] (setting [5]), -1.82 kcal/mol.
With “E22G: E22G mutation of Aβ (amyloid-β peptide)”, the “observed ln(νmut/νwt)” value in data set [1] is listed as 2.03.
Regarding “S20G: S20G mutation of amylin (KCNTATCATQRLANFLVHSGNNFGAILSSTNVGSNTY; ends and bridges not checked; cysteine pairing not given here; UniProt P10997 34-70, looked up, variant S20G)”, the “observed ln(νmut/νwt)” value in data set [1] is recorded as 1.01.
As to `CSCC[C@H](N)C(=O)O` [Met (M)], the β-sheet propensity in data set [3] (setting [6]) and in data set [3] (setting [7]) was 0.26 in each case. Also, the charge was 0 (Table 1, neutral pH) and 0 (Table 5, neutral pH). Further, the hydrophobicity is -0.229 kcal/mol in data set [2] (setting [4]) and -0.96 kcal/mol in data set [2] (setting [5]).
For `N[C@@H](CO)C(=O)O` [Ser (S), serine], the β-sheet propensity in data set [3] (setting [6]) and in data set [3] (setting [7]) was 0.30 each time. Besides, the charge runs as follows: (Table 1, neutral pH) 0; (Table 5, neutral pH) 0. The values for the hydrophobicity in data set [2] (setting [4]) and in data set [2] (setting [5]) were 0.296 kcal/mol and 1.24 kcal/mol, respectively.
As to `NC(=O)C[C@H](N)C(=O)O` [Asn (N)], the β-sheet propensity in data set [3] (setting [6]) and in data set [3] (setting [7]) was 0.40 throughout. For the same compound, the charge runs as follows: (Table 1, neutral pH) 0; (Table 5, neutral pH) 0. The results for the hydrophobicity in data set [2] (setting [4]) and in data set [2] (setting [5]) were 0.457 kcal/mol and 1.91 kcal/mol, respectively.
On to “G24A: single-point mutation G24A of amylin (KCNTATCATQRLANFLVHSSNNFAAILSSTNVGSNTY; ends and bridges not checked; cysteine pairing not given here; UniProt P10997 34-70, looked up, variant G24A)”, for which the “observed ln(νmut/νwt)” value in data set [1] was −0.03.
`C[C@H](N)C(=O)O` [Ala (A)]: the β-sheet propensity in data set [3] (setting [6]) and in data set [3] (setting [7]) was 0.47 throughout. Besides, the charge runs as follows: (Table 1, neutral pH) 0; (Table 5, neutral pH) 0. Further, the figures for the hydrophobicity in data set [2] (setting [4]) and in data set [2] (setting [5]) were -0.0932 kcal/mol and -0.39 kcal/mol, respectively.
Consider “A21G: A21G mutation of Aβ (amyloid-β peptide)”, for which, in data set [1], the “observed ln(νmut/νwt)” value was −0.07.
Take “E22Q: E22Q mutation of Aβ (amyloid-β peptide)”: the “observed ln(νmut/νwt)” value in data set [1] is 2.92.
